Source: ChEMBL document CHEMBL2390923, “Synthesis of 7-oxabicyclo[2.2.1]hept-5-en-2-yl derivatives and their screening for antimicrobial and antioxidant properties” (2013)
Values after ≈ are worked out from the molar mass of the structure shown.

Columns and labels:
Format in all cases: functional
[1] = tested on: Radical scavenging activity; experiment: Antioxidant activity assessed as DPPH radical scavenging activity after 30 mins; parameters: concentration or dose not given beside the values
Staphylococcus aureus [2] = experiment: Antibacterial activity against Staphylococcus aureus at 150 mg/ml after 24 hrs by well diffusion assay; conditions: read-out: DIZ
Klebsiella pneumoniae [3] = experiment: Antibacterial activity against Klebsiella pneumoniae at 150 mg/ml after 24 hrs by well diffusion assay; conditions: read-out: DIZ
Staphylococcus aureus [4] = experiment: Antibacterial activity against Staphylococcus aureus at 125 mg/ml after 24 hrs by well diffusion assay; conditions: read-out: DIZ
Staphylococcus aureus [5] = experiment: Antibacterial activity against Staphylococcus aureus at 100 mg/ml after 24 hrs by well diffusion assay; conditions: read-out: DIZ
Staphylococcus aureus [6] = experiment: Antibacterial activity against Staphylococcus aureus after 18 to 24 hrs by microdilution broth assay
Bacillus subtilis [7] = experiment: Antibacterial activity against Bacillus subtilis after 18 to 24 hrs by microdilution broth assay
Escherichia coli [8] = experiment: Antibacterial activity against Escherichia coli at 150 mg/ml after 24 hrs by well diffusion assay; conditions: read-out: DIZ
Klebsiella pneumoniae [9] = experiment: Antibacterial activity against Klebsiella pneumoniae at 100 mg/ml after 24 hrs by well diffusion assay; conditions: read-out: DIZ
Escherichia coli [10] = experiment: Antibacterial activity against Escherichia coli after 18 to 24 hrs by microdilution broth assay
Vibrio cholerae [11] = experiment: Antibacterial activity against Vibrio cholerae after 18 to 24 hrs by microdilution broth assay
Klebsiella pneumoniae [12] = experiment: Antibacterial activity against Klebsiella pneumoniae at 125 mg/ml after 24 hrs by well diffusion assay; conditions: read-out: DIZ
Klebsiella pneumoniae [13] = experiment: Antibacterial activity against Klebsiella pneumoniae after 18 to 24 hrs by microdilution broth assay
Bacillus subtilis [14] = experiment: Antibacterial activity against Bacillus subtilis at 125 mg/ml after 24 hrs by well diffusion assay; conditions: read-out: DIZ
Vibrio cholerae [15] = experiment: Antibacterial activity against Vibrio cholerae at 100 mg/ml after 24 hrs by well diffusion assay; conditions: read-out: DIZ
Bacillus subtilis [16] = experiment: Antibacterial activity against Bacillus subtilis at 100 mg/ml after 24 hrs by well diffusion assay; conditions: read-out: DIZ
Bacillus subtilis [17] = experiment: Antibacterial activity against Bacillus subtilis at 150 mg/ml after 24 hrs by well diffusion assay; conditions: read-out: DIZ
Vibrio cholerae [18] = experiment: Antibacterial activity against Vibrio cholerae at 125 mg/ml after 24 hrs by well diffusion assay; conditions: read-out: DIZ
Vibrio cholerae [19] = experiment: Antibacterial activity against Vibrio cholerae at 150 mg/ml after 24 hrs by well diffusion assay; conditions: read-out: DIZ
Escherichia coli [20] = experiment: Antibacterial activity against Escherichia coli at 125 mg/ml after 24 hrs by well diffusion assay; conditions: read-out: DIZ
Escherichia coli [21] = experiment: Antibacterial activity against Escherichia coli at 100 mg/ml after 24 hrs by well diffusion assay; conditions: read-out: DIZ

| Structure (SMILES) | inhibition [1] [%] | zone of inhibition at 150000 µg/mL (Staphylococcus aureus [2]) [mm] | zone of inhibition at 150000 µg/mL (Klebsiella pneumoniae [3]) [mm] | zone of inhibition at 125000 µg/mL (Staphylococcus aureus [4]) [mm] | zone of inhibition at 100000 µg/mL (Staphylococcus aureus [5]) [mm] | MIC (Staphylococcus aureus [6]) [µg/mL] | MIC (Bacillus subtilis [7]) [µg/mL] | zone of inhibition at 150000 µg/mL (Escherichia coli [8]) [mm] | zone of inhibition at 100000 µg/mL (Klebsiella pneumoniae [9]) [mm] | MIC (Escherichia coli [10]) [µg/mL] | MIC (Vibrio cholerae [11]) [µg/mL] | zone of inhibition at 125000 µg/mL (Klebsiella pneumoniae [12]) [mm] | MIC (Klebsiella pneumoniae [13]) [µg/mL] | zone of inhibition at 125000 µg/mL (Bacillus subtilis [14]) [mm] | zone of inhibition at 100000 µg/mL (Bacillus subtilis [16]) [mm] | zone of inhibition at 150000 µg/mL (Bacillus subtilis [17]) [mm] | zone of inhibition at 125000 µg/mL (Vibrio cholerae [18]) [mm] | zone of inhibition at 150000 µg/mL (Vibrio cholerae [19]) [mm] | zone of inhibition at 125000 µg/mL (Escherichia coli [20]) [mm] | zone of inhibition at 100000 µg/mL (Escherichia coli [21]) [mm] | other results |
| --- | --- | --- | --- | --- | --- | --- | --- | --- | --- | --- | --- | --- | --- | --- | --- | --- | --- | --- | --- | --- | --- |
| Cc1cc(C(C)(C)C)c(O)c(C(C)(C)C)c1 | 58.4 | – | – | – | – | – | – | – | – | – | – | – | – | – | – | – | – | – | – | – | – |
| CCC12C=CC(O1)C(C(=O)c1ccccc1)C2c1ccccc1F (stereo not drawn) | 18.1 | 16 | 14 | 15 | 13 | 1250 (≈ 3880 µM) | 1250 (≈ 3880 µM) | 12 | 10 | 1250 (≈ 3880 µM) | 625 (≈ 1940 µM) | 13 | 625 (≈ 1940 µM) | – | – | – | – | – | – | – | – |
| O=C(O)c1cn(C2CC2)c2cc(N3CCNCC3)c(F)cc2c1=O [CIPROFLOXACIN] | – | 16 | 23 | 16 | 16 | 15 (≈ 45.3 µM) | 125 (≈ 377 µM) | – | 23 | 62 (≈ 187 µM) | 15 (≈ 45.3 µM) | 23 | 7 (≈ 21.1 µM) | 18 | 18 | 18 | 16 | 16 | – | – | zone of inhibition at 100000 µg/mL (Vibrio cholerae [15]): 16 mm |
| CCC12C=CC(O1)C(C(=O)c1ccccc1)C2c1ccc(F)cc1 (stereo not drawn) | 42.4 | 15 | 12 | 13 | – | 1250 (≈ 3880 µM) | 625 (≈ 1940 µM) | 13 | – | 625 (≈ 1940 µM) | 625 (≈ 1940 µM) | – | 625 (≈ 1940 µM) | – | – | – | – | – | 11 | 10 | – |
| CCC12C=CC(O1)C(C(=O)c1ccccc1)C2c1ccc([N+](=O)[O-])cc1 (stereo not drawn) | 21.6 | 13 | – | – | – | 1250 (≈ 3580 µM) | 1250 (≈ 3580 µM) | 14 | – | 1250 (≈ 3580 µM) | 1250 (≈ 3580 µM) | – | 625 (≈ 1790 µM) | – | – | – | – | – | 14 | 12 | – |
| CCC12C=CC(O1)C(C(=O)c1ccccc1)C2c1cccc(OC)c1 (stereo not drawn) | 33.4 | 17 | 13 | 15 | – | 625 (≈ 1870 µM) | 625 (≈ 1870 µM) | 16 | – | 625 (≈ 1870 µM) | 625 (≈ 1870 µM) | 12 | 312 (≈ 933 µM) | – | – | – | – | – | 15 | 13 | – |
| CCC12C=CC(O1)C(C(=O)c1ccc(Br)cc1)C2c1ccccc1 (stereo not drawn) | 32.6 | 17 | 16 | 13 | 11 | 1250 (≈ 3260 µM) | 78 (≈ 204 µM) | 17 | 11 | 78 (≈ 204 µM) | 312 (≈ 814 µM) | 14 | 78 (≈ 204 µM) | 14 | 12 | 17 | 10 | 11 | 16 | 12 | – |
| CCC12C=CC(O1)C(C(=O)c1ccccc1)C2c1cccc(F)c1 (stereo not drawn) | 22.3 | 16 | 12 | 14 | 11 | 625 (≈ 1940 µM) | 1250 (≈ 3880 µM) | 12 | – | 1250 (≈ 3880 µM) | 625 (≈ 1940 µM) | 11 | 312 (≈ 968 µM) | – | – | 12 | 14 | 15 | 11 | – | zone of inhibition at 100000 µg/mL (Vibrio cholerae [15]): 12 mm |
| CCC12C=CC(O1)C(C(=O)c1ccccc1)C2c1ccc(C#N)cc1 (stereo not drawn) | 58.9 | 13 | 15 | 11 | – | 156 (≈ 474 µM) | 156 (≈ 474 µM) | 16 | 10 | 156 (≈ 474 µM) | 1250 (≈ 3790 µM) | 13 | 156 (≈ 474 µM) | 13 | 11 | 15 | – | – | 15 | 11 | – |
| CCC12C=CC(O1)C(C(=O)c1ccccc1)C2c1ccc(OC)cc1 (stereo not drawn) | 15.1 | 13 | – | 11 | – | 1250 (≈ 3740 µM) | 625 (≈ 1870 µM) | – | – | 625 (≈ 1870 µM) | 625 (≈ 1870 µM) | – | 625 (≈ 1870 µM) | – | – | – | 14 | 17 | – | – | zone of inhibition at 100000 µg/mL (Vibrio cholerae [15]): 12 mm |
| CCC12C=CC(O1)C(C(=O)c1ccccc1)C2c1ccccc1 (stereo not drawn) | 58.9 | – | 19 | – | – | 625 (≈ 2050 µM) | 312 (≈ 1030 µM) | 15 | 13 | 312 (≈ 1030 µM) | 1250 (≈ 4110 µM) | 16 | 4 (≈ 13.1 µM) | 16 | 12 | 18 | – | – | 14 | – | – |
| CCC12C=CC(O1)C(C(=O)c1ccccc1)C2c1ccccc1Cl (stereo not drawn) | 22.2 | 16 | 12 | 15 | 12 | 1250 (≈ 3690 µM) | 1250 (≈ 3690 µM) | 16 | 9 | 1250 (≈ 3690 µM) | 625 (≈ 1840 µM) | 11 | 625 (≈ 1840 µM) | 12 | 10 | 13 | 12 | 14 | 14 | 13 | zone of inhibition at 100000 µg/mL (Vibrio cholerae [15]): 11 mm |
| CCC12C=CC(O1)C(C(=O)c1ccccc1)C2c1cccc(Br)c1 (stereo not drawn) | 23.2 | 15 | 14 | 12 | 11 | 31 (≈ 80.9 µM) | 312 (≈ 814 µM) | 15 | – | 312 (≈ 814 µM) | 625 (≈ 1630 µM) | 12 | 156 (≈ 407 µM) | 14 | 11 | 17 | – | 11 | 12 | – | – |
| CCC12C=CC(O1)C(C(=O)c1ccccc1)C2c1ccc(Br)cc1 (stereo not drawn) | 30.5 | 14 | 12 | 13 | 11 | 156 (≈ 407 µM) | 312 (≈ 814 µM) | 18 | – | 312 (≈ 814 µM) | 625 (≈ 1630 µM) | 11 | 156 (≈ 407 µM) | – | – | 12 | 11 | 12 | 14 | – | – |
| CCC12C=CC(O1)C(C(=O)c1cccc(Br)c1)C2c1ccccc1 (stereo not drawn) | 36 | – | – | – | – | 625 (≈ 1630 µM) | 625 (≈ 1630 µM) | 14 | – | 625 (≈ 1630 µM) | 625 (≈ 1630 µM) | – | 312 (≈ 814 µM) | – | – | – | – | 12 | 12 | – | – |
| CCC12C=CC(O1)C(C(=O)c1ccccc1)C2c1ccccc1Br (stereo not drawn) | 17.7 | 16 | 11 | 14 | 13 | 1250 (≈ 3260 µM) | 1250 (≈ 3260 µM) | 15 | – | 1250 (≈ 3260 µM) | 625 (≈ 1630 µM) | – | 625 (≈ 1630 µM) | – | – | – | – | – | 14 | 11 | – |
| CCC12C=CC(O1)C(C(=O)c1ccccc1)C2c1ccc(Cl)cc1 (stereo not drawn) | 35.5 | 13 | 15 | – | – | 625 (≈ 1840 µM) | 322 (≈ 950 µM) | – | – | 312 (≈ 921 µM) | 625 (≈ 1840 µM) | 11 | 156 (≈ 460 µM) | – | – | – | 13 | 14 | – | – | zone of inhibition at 100000 µg/mL (Vibrio cholerae [15]): 11 mm |
